Results taken from ChEMBL document CHEMBL1201862, “PubChem BioAssay data set” (2004).
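Values below derive from 48-hour exposures of cells grown in 96-well plates, with endpoints linearly interpolated between the two concentrations bracketing the appropriate inhibition level. GI50: concentration for 50% inhibition of growth.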 Active and inactive are the calls of the source. No stated cut-off is given here; in the data, active = GI50 up to about 1.1 µM and inactive = higher.

How the values were obtained:
Experiment in all cases: NCI-60 cell line screen, 48 h
SNB-19 = test system: SNB-19
Hs-578T = test system: Hs-578T
BT-549 = test system: BT-549
NCI-H23 = test system: NCI-H23
SF-539 = test system: SF-539
HCT-116 = test system: HCT-116
M14 = test system: M14
HL-60 = test system: HL-60
UO-31 = test system: UO-31
OVCAR-3 = test system: OVCAR-3
HCC 2998 = test system: HCC 2998
A549 = test system: A549
NCI-H460 = test system: NCI-H460
SW-620 = test system: SW-620
PC-3 = test system: PC-3
UACC-62 = test system: UACC-62
SNB-75 = test system: SNB-75
HOP-92 = test system: HOP-92
COLO 205 = test system: COLO 205
MDA-MB-231 = test system: MDA-MB-231

Structure (SMILES)	GI50 (SNB-19)	GI50 (Hs-578T)	GI50 (BT-549)	GI50 (NCI-H23)	GI50 (SF-539)	GI50 (HCT-116)	GI50 (M14)	GI50 (HL-60)	GI50 (UO-31)	GI50 (OVCAR-3)	GI50 (HCC 2998)	GI50 (A549)	GI50 (NCI-H460)	GI50 (SW-620)	GI50 (PC-3)	GI50 (UACC-62)	GI50 (SNB-75)	GI50 (HOP-92)	GI50 (COLO 205)	GI50 (MDA-MB-231)
c1ccc(CCNCc2ccco2)nc1	> 100 µM (inactive)	> 100 µM (inactive)	> 100 µM (inactive)	> 100 µM (inactive)	> 100 µM (inactive)	> 100 µM (inactive)	> 100 µM (inactive)	> 100 µM (inactive)	> 100 µM (inactive)	> 100 µM (inactive)	> 100 µM (inactive)	> 100 µM (inactive)	> 100 µM (inactive)	> 100 µM (inactive)	> 100 µM (inactive)	> 100 µM (inactive)	> 77.4 µM (inactive)	> 100 µM (inactive)	> 100 µM (inactive)	> 100 µM (inactive)
Cc1cccc2c1CC1(Cc3ccccc3C1=O)C2=O (stereo not given)	> 100 µM (inactive)	26.2 µM (inactive)	24.7 µM (inactive)	> 100 µM (inactive)	> 100 µM (inactive)	> 100 µM (inactive)	> 100 µM (inactive)	> 100 µM (inactive)	> 100 µM (inactive)	> 100 µM (inactive)	> 100 µM (inactive)	> 100 µM (inactive)	> 100 µM (inactive)	> 100 µM (inactive)	> 100 µM (inactive)	75.7 µM (inactive)	77.4 µM (inactive)	76.9 µM (inactive)	> 100 µM (inactive)	> 100 µM (inactive)
CC(C)OC(=S)Nc1ccc(Cl)c(/C=N/OC(C)(C)C)c1	20.7 µM (inactive)	16.6 µM (inactive)	18.5 µM (inactive)	18.5 µM (inactive)	15.5 µM (inactive)	15.4 µM (inactive)	19.9 µM (inactive)	16.4 µM (inactive)	13.9 µM (inactive)	18.5 µM (inactive)	19.6 µM (inactive)	16.9 µM (inactive)	17.4 µM (inactive)	16.6 µM (inactive)	20.1 µM (inactive)	16.4 µM (inactive)	23.5 µM (inactive)	12.2 µM (inactive)	17.1 µM (inactive)	14.9 µM (inactive)
CC(C)(C)OC(=O)N1CC(CCl)c2ccc(O)cc21 (stereo not given)	3.32 µM (inactive)	2.8 µM (inactive)	1.97 µM (inactive)	1.04 µM (active)	2.16 µM (inactive)	2.64 µM (inactive)	1.72 µM (inactive)	1.87 µM (inactive)	2.29 µM (inactive)	2.51 µM (inactive)	0.0223 µM (active)	3.12 µM (inactive)	2.67 µM (inactive)	2.59 µM (inactive)	1.87 µM (inactive)	2.01 µM (inactive)	1.39 µM (inactive)	2.42 µM (inactive)	1.81 µM (inactive)	2.53 µM (inactive)
C=CCN1C(=O)/C(=C/c2ccc(OC)cc2)N=C1SC/C=C/C	34.4 µM (inactive)	50.1 µM (inactive)	39.7 µM (inactive)	41.5 µM (inactive)	> 100 µM (inactive)	25.4 µM (inactive)	54.7 µM (inactive)	20 µM (inactive)	32.1 µM (inactive)	74.1 µM (inactive)	63.2 µM (inactive)	18.9 µM (inactive)	61.9 µM (inactive)	35.4 µM (inactive)	30.4 µM (inactive)	42.8 µM (inactive)	31.2 µM (inactive)	24 µM (inactive)	29.2 µM (inactive)	57.8 µM (inactive)
S=C(N/N=C(/c1ccccc1)c1ccccn1)Nc1ccccc1Cl	4.95 µM (inactive)	2.49 µM (inactive)	3.3 µM (inactive)	< 0.0175 µM (active)	1.11 µM (active)	< 0.01 µM (active)	< 0.0224 µM (active)	< 0.0865 µM (active)	0.163 µM (active)	< 0.0103 µM (active)	0.673 µM (active)	0.0946 µM (active)	0.101 µM (active)	< 0.01 µM (active)	< 0.01 µM (active)	0.101 µM (active)	6.64 µM (inactive)	0.226 µM (active)	< 0.01 µM (active)	< 0.01 µM (active)
